Experimental findings from patent US5633276A, “Indoline derivatives, method of preparation and use” (Glaxo Group Limited, priority 1993, dated 1997) are described below.

Structures can show the parent of a compound that is named as a salt.

The test system of one test is rabbit retina. Kind of test: Melatonin agonist or antagonist activity in rabbit retina. The test is classed as cell-based. To be noted: Oryctolagus cuniculus, method of Dubocovich. From the text: (§1) The results obtained for particular compounds according to the present invention are as follows:
Test [1] deals with melatonin receptors in chicken retinal membranes. Put plainly: Binding to melatonin receptors in chicken retinal membranes. The conditions noted are these: method of Dubocovich and Takahashi, read-out: Chicken retina Ki.
Description: as §1

As for `CC(=O)NCCN1CCc2ccc3c(c21)CCCO3` [Example 2, N-[2-(2,3,8,9-Tetrahydro-7H-pyrano[2,3-g]indol-1-yl)-ethyl]-acetamide hydrochloride], the IC50 with rabbit retina stood at 0.95 nM. In test [1], the Ki is 4.92 nM. Regarding `CC(=O)NCCN1CCc2ccc3c(c21)CCO3` [Example 3, N-[2-(2,3,7,8-Tetrahydro-1H-furo[2,3-g]indol-1-yl)ethyl]-acetamide], the IC50 in the test on rabbit retina was determined as 0.04 nM. Besides, the Ki in test [1] is 0.42 nM.

For the molecule `CC(=O)NCCN1CCc2cc(Cl)c3c(c21)CCO3` [Example 5, N-[2-(5-Chloro-2,3,7,8-tetrahydro-1H-furo[2,3-g]indol-1-yl)-ethyl]-acetamide], the Ki in test [1] was 3.21 nM.

With `O=C(NCCN1CCc2ccc3c(c21)CCO3)C1CC1` [Example 6, Cyclopropanecarboxylic acid [2-(2,3,7,8-tetrahydro-1H-furo[2,3-g]indol-1-yl)-ethyl]-amide], the IC50 in the test on rabbit retina stood at 0.2 nM. Moreover, the Ki in test [1] turned out to be 1.68 nM.

What is called IC50 is the midpoint of a concentration-inhibition curve. Low readings indicate higher potency, high ones lower potency. By Ki is commonly meant a dissociation constant, usually derived from enzyme kinetics or from competition with a known ligand.
